Source: patent US8344018B2, “Oxindolyl inhibitor compounds” (Gilead Sciences, Inc., priority 2008, dated 2013)
Values joined by “and” are separate entries in the source; they are usually repeats but may differ in a detail not shown here. Equal entries are not always repeated.

Experiments:
CDK2 = CDK2 (Homo sapiens, UniProt P24941); experiment: CDK2 inhibition; type: biochemical; details: two numbers = two different lots of the compound
HDAC 1 = HDAC 1 (Homo sapiens, UniProt Q13547); experiment: HDAC 1 fluorescence assay with about 3 hours preincubation; type: biochemical; details: 3-hour preincubation of enzyme and compound; two numbers = two different lots of the compound; read-out: HDAC 1 inhibitory activity (IC50 [μM]) (3-hour preincubation)
Chain of HDAC 1 (Q13547 whole entry, species assumed): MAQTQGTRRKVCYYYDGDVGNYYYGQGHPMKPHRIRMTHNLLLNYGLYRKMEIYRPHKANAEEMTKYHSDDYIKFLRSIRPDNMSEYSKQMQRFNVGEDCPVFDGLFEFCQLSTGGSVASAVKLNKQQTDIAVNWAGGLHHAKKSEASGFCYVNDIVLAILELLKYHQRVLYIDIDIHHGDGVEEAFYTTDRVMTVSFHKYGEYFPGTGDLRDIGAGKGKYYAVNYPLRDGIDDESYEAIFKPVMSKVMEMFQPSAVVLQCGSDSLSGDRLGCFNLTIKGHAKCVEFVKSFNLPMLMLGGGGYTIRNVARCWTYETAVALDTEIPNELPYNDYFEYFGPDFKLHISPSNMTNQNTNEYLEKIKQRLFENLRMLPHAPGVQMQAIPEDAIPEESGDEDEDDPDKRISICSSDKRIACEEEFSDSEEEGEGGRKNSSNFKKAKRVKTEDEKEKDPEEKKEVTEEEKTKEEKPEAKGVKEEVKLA
Description: The second assay is similar to the first assay described above, except that preincubation is carried out for about 3 hours after the enzyme is introduced. The test compound was suspended in, and titrated in DMSO. It was then spotted into a 384-well test plate. The enzyme, HDAC 1, was diluted in the same assay buffer as used in the previous assay and added to the pre-spotted compound. The enzyme/compound mix was incubated at room temperature for about 3 hours. The peptide substrate containing a fluorophore/quencher pair was diluted in the assay buffer and added to the compound/enzyme mix initiating the reaction. The reaction incubated at room temperature for 45 minutes. A concentrated developer solution was diluted in the assay buffer, and added to the reaction. The reaction was incubated at room temperature for about 15 minutes and relative fluorescence was read on an instrument reader.
Where two numbers are given, the values are reported for measurements on two different lots of the compound.

IC50 (CDK2) | IC50 (HDAC 1) | SMILES
0.02 µM | 0.335 µM | C/C(Nc1ccc(C(=O)Nc2ccccc2N)cc1)=C1/C(=O)Nc2ccc(C(=O)C(C)C)cc21 [Example 5, N-(2-Amino-phenyl)-4-[1-(5-isobutyryl-2-oxo-1,2-dihydro-indol-3-ylidene)-ethylamino]-benzamide]
> 40 µM | 0.232 µM | C/C(Nc1ccc(C(=O)Nc2ccccc2N)cc1)=C1/C(=O)Nc2ccc(-c3csc(C)n3)cc21 [Example 7, N-(2-Amino-phenyl)-4-{1-[5-(2-methyl-thiazol-4-yl)-2-oxo-1,2-dihydro-indol-3-ylidene]-ethylamino}-benzamide]
0.52 µM | 0.186 µM | C/C(Nc1ccc(C(=O)Nc2ccccc2N)cc1)=C1/C(=O)Nc2ccc(S(=O)(=O)N3CCOCC3)cc21 [Example 6, N-(2-Amino-phenyl)-4-{1-[5-(morpholine-4-sulfonyl)-2-oxo-1,2-dihydro-indol-3-ylidene]-ethylamino}-benzamide]
0.01 µM and 0.02 µM | 0.029 µM and 0.021 µM | C/C(Nc1ccc(C(=O)Nc2ccccc2N)cc1)=C1/C(=O)Nc2ccc(C#N)cc21 [Example 3, N-(2-Amino-phenyl)-4-[1-(5-cyano-2-oxo-1,2-dihydro-indol-3-ylidene)-ethylamino]-benzamide]
0.07 µM | 0.17 µM | COC(=O)c1ccc2c(c1)/C(=C/Nc1ccc(C(=O)Nc3ccccc3N)cc1)C(=O)N2 [Example 2, 3-{[4-(2-Amino-phenylcarbamoyl)-phenylamino]-methylene}-2-oxo-2,3-dihydro-1H-indole-5-carboxylic acid methyl ester]
0.44 µM | 0.181 µM | C/C(Nc1ccc(C(=O)Nc2ccccc2N)cc1)=C1/C(=O)Nc2ccc(C(=O)O)cc21 [Example 10, 3-{1-[4-(2-Amino-phenylcarbamoyl)-phenylamino]-ethylidene}-2-oxo-2,3-dihydro-1H-indole-5-carboxylic acid]
> 40 µM | 0.635 µM | COC(=O)c1ccc2c(c1)/C(=C(\C)Nc1ccc(C(=O)NO)cc1)C(=O)N2 [Example 11, 3-[1-(4-Hydroxycarbamoyl-phenylamino)-ethylidene]-2-oxo-2,3-dihydro-1H-indole-5-carboxylic acid methyl ester]
0.25 µM | 0.063 µM | CN(C)CCNC(=O)c1ccc2c(c1)/C(=C/Nc1ccc(C(=O)Nc3ccccc3N)cc1)C(=O)N2 [Example 9, 3-{[4-(2-Amino-phenylcarbamoyl)-phenylamino]-methylene}-2-oxo-2,3-dihydro-1H-indole-5-carboxylic acid (2-dimethylamino-ethyl)-amide]
0.043 µM | 0.033 µM | COC(=O)c1ccc2c(c1)/C(=C(\C)Nc1ccc(C(=O)Nc3ccccc3N)cc1)C(=O)N2 [Example 1, 3-{1-[4-(2-Amino-phenylcarbamoyl)-phenylamino]-ethylidene}-2-oxo-2,3-dihydro-1H-indole-5-carboxylic acid methyl ester]
0.13 µM | 0.1 µM | CC(Nc1ccc(C(=O)Nc2ccccc2N)cc1)=C1C(=O)Nc2ccc(S(C)(=O)=O)cc21 [Example 8, N-(2-Amino-phenyl)-4-[1-(5-methanesulfonyl-2-oxo-1,2-dihydro-indol-3-ylidene)-ethylamino]-benzamide]
1.01 µM | 0.036 µM | C/C(Nc1ccc(C(=O)Nc2ccccc2N)cc1)=C1/C(=O)Nc2ccc(C(C)O)cc21 (centres unmarked) [Example 13, N-(2-Amino-phenyl)-4-{1-[5-(1-hydroxy-ethyl)-2-oxo-1,2-dihydro-indol-3-ylidene]-ethylamino}-benzamide]
0.34 µM | 0.071 µM | C/C(Nc1ccc(C(=O)Nc2ccccc2N)cc1)=C1/C(=O)Nc2ccc(C(=O)N(C)C)cc21 [Example 12, 3-{1-[4-(2-Amino-phenylcarbamoyl)-phenylamino]-ethylidene}-2-oxo-2,3-dihydro-1H-indole-5-carboxylic acid dimethylamide]
0.01 µM | 0.064 µM and 0.03 µM | CC(=O)c1ccc2c(c1)/C(=C(\C)Nc1ccc(C(=O)Nc3ccccc3N)cc1)C(=O)N2 [Example 4, 4-[1-(5-Acetyl-2-oxo-1,2-dihydro-indol-3-ylidene)-ethylamino]-N-(2-amino-phenyl)-benzamide]
